Experiments:
HT-29 cells = test: [3H]Thymidine incorporation cell proliferation assay in HT-29 cells; assay type: cell-based, human; conditions: 30 μM, three days
Protocol: The stilbenes illustrated in FIG. 4 were also used to investigate their ability to inhibit cell proliferation in HT-29 cell line. In this experiment, HT-29 cells (20,000 cells/well in 24-well plate) were treated with the respective stilbenes (each used either at 30 μM or 3 μM) in 10% FBS/DMEM for three days.
(§1) Human colon carcinoma cell lines HT-29 was obtained from the American Type Culture Collection (Manassas, Va.). The cells were maintained in Dulbecco's modification of Eagle's medium (DMEM) supplemented with 10% FBS and 1% penicillin/streptomycin at 37° C. and 5% CO2. The cytokine mixture, consisting of 10 ng/ml of TNF-α, IFN-γ and LPS, was used to induce iNOS and COX-2, unless otherwise mentioned. The cells were treated with the test compound either alone or in combination with cytokines for different time intervals and harvested for protein or RNA.
HT-29 cells were plated at a density of 20,000 cells/well in a 24 well plate and treated with varying concentrations of pterostilbene for a period of 1, 2 or 3 days at 37° C. Before harvest, the cells were incubated with 1 μCi [^3H]thymidine for 4 h at 37° C. and were washed with phosphate buffered saline. The cells were precipitated with cold 10% trichloroacetic acid for 10 min and solubilized with 0.5 ml solubilization buffer (0.2 M NaOH, 40 μg/ml salmon sperm DNA) for 2 h at room temperature. The lysate was transferred to 5 ml Ecolume and the [3H]thymidine incorporated into the DNA of HT-29 cells was determined using a scintillation spectrometer (Beckman Coulter, Fullerton, Calif.).

iNOS = test: Cytokine-induced iNOS protein expression in HT-29 cells (Western blot); assay type: cell-based, human; conditions: stilbene analogs each at 10 μM, 15 hours, HT-29, Western blot
Protocol: HT-29 human colon adenocarcinoma cells were grown in 10% FBC/DMEM. Cells (about 600,000 cells/well) were plated in 6-well plate and treated with stilbene analogs shown in FIG. 4 (each at 10 μM) for 15 hours together with cytokine mixture comprising TNF-a, IFN0g, and LPS (each at 10 ng/ml). Cell lysates were prepared and subjected to Western Blot analysis.
as §1
The cell culture conditions and the reagents used in this example were described in Example 32. Whole cell extracts were collected after the various treatments and analyzed by western blotting. The protein samples were separated on 4-15% SDS-PAGE gels (Biorad, Hercules, Calif.) followed by transfer to a polyvinylidene fluoride membrane. The membranes were blocked with 5% milk in Tris buffer for 1 h and then incubated with the appropriate primary antibody solutions overnight at 4° C. The membranes were washed with Tris buffer, and incubated with horseradish peroxidase conjugated secondary antibody solutions for 1 h at room temperature.
The protein bands were visualized using a chemiluminescence based kit from Amersham Biosciences (Buckinghamshire, UK). The primary antibodies against iNOS, COX-2, IκBα, cyclin D1, c-myc (Santa Cruz Bio-technology, Santa Cruz, Calif.), phospho-STAT3, phospho-Erk1/2, phospho-JNK1/2, phospho-p38, phospho-Akt, phospho-ATF2, phospho-Elk1, PARP (Cell Signaling Technology Inc., Beverly, Mass.) and actin (Sigma, St. Louis, Mo.) and secondary antibodies (Santa Cruz Biotechnology, Santa Cruz, Calif.) were used for probing the abundance of the target protein in the samples.

[1] = system: AOM-induced rat colon carcinogenesis; conditions: 100 ppm; cited from earlier work
AOM-induced colonic ACF = conditions: F344 rats; L-N6-(1-iminoethyl)lysine tetrazoleamide at 100 ppm; cited from earlier work
[2] = system: colorectal aberrant crypt foci (ACF); conditions: rats; cited from earlier work

Compound	proliferation of HT-29 cells (HT-29 cells)	AOM-induced colonic ACF (AOM-induced colonic ACF)	other results
COc1ccc(/C=C/c2cc(OC)cc(OC)c2)cc1 [ARS-8, (E)-1,3-dimethoxy-5-(4-methoxystyryl)benzene]	inhibited proliferation		
COc1ccc(/C=C\c2cc(OC)cc(OC)c2)cc1 [ARS-9, (Z)-1,3-dimethoxy-5-(4-methoxystyryl)benzene]	inhibited proliferation		induction of iNOS protein expression by cytokine mixture (iNOS): inhibited
C[C@H]1CC(=N)N[C@@H]2[C@H](Cl)[C@@H]21.Cl [ONO-1714, [1S,5S,6R,7R]-7-chloro-3-imino-5-methyl-2 azabicyclo[4.1.0]heptane hydrochloride]			AOM-induced rat colon carcinogenesis [1]: inhibitory effect
N=C(N)SCCc1ccc(CCSC(=N)N)cc1 [PBIT, S,S′-1,4-phenylene-bis(1,2-ethanediyl)bis-isothiourea]		inhibitory effects	
Oc1ccc(C=Cc2cc(O)cc(O)c2)cc1 [Resveratrol]			growth of colorectal aberrant crypt foci (ACF) [2]: reduce the growth
L-N^6-(1-iminoethyl)lysine tetrazoleamide		significantly suppress	

From patent publication US8426369B2, “Prevention and treatment of colon cancer” (Rutgers, The State University of New Jersey, priority 2006, dated 2013)
